Measured values published in PubChem BioAssay AID248 (DTP/NCI, 2004).
“And” between values parts separate entries of the source, which are not always exact repeats. Identical values can stand only once. Toxic doses and inconclusive results are not listed. Rule as the data show it: active = T/C of 150% or more; inactive = T/C below 125%.

Tested on: L1210 leukemia ip in BDF1 mice, survival T/C
Test: NCI In Vivo Anticancer Drug Screen. Data for tumor model L1210 Leukemia (intraperitoneal) in B6D2F1 (BDF1) mice
Conditions: higher = longer survival
How it was run: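 Antitumor effect is assessed in tumor-bearing animals. Survival in the compound arm is compared with a vehicle-dosed control arm and expressed as their quotient.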

Measured: T/C

CO[C@@]12[C@H](COC(N)=O)C3=C(C(=O)C(C)=C(N)C3=O)N1C[C@@H]1N[C@@H]12
active: endpoint: mean survival time, dose: 0.9 mg/kg/injection, schedule: Q02DX010 (ip), vehicle: other 157 % of control and 219 % of control | endpoint: mean survival time, dose: 1.0 mg/kg/injection, schedule: Q01DX Z (ip), vehicle: carboxymethylcellulose (CMC) 161 % of control | endpoint: mean survival time, dose: 1.1 mg/kg/injection, schedule: Q01DX009 (ip), vehicle: saline 155 % of control | endpoint: mean survival time, dose: 1.12 mg/kg/injection, schedule: Q01DX015 (ip), vehicle: carboxymethylcellulose (CMC) 171 % of control | endpoint: mean survival time, dose: 1.25 mg/kg/injection, schedule: Q01DX015 (ip), vehicle: saline 162 % of control | endpoint: mean survival time, dose: 1.3 mg/kg/injection, schedule: Q02DX010 (ip), vehicle: other 167 % of control and 207 % of control | endpoint: mean survival time, dose: 1.4 mg/kg/injection, schedule: Q01DX009 (ip), vehicle: saline 154 % of control and 178 % of control | endpoint: mean survival time, dose: 2.0 mg/kg/injection, schedule: Q02DX010 (ip), vehicle: other 180 % of control and 184 % of control | endpoint: mean survival time, dose: 2.12 mg/kg/injection, schedule: Q02DX010 (ip), vehicle: carboxymethylcellulose (CMC) 158 % of control | endpoint: mean survival time, dose: 2.5 mg/kg/injection, schedule: Q01DX015 (ip), vehicle: saline 154 % of control | endpoint: mean survival time, dose: 3.0 mg/kg/injection, schedule: Q## X003 (ip), vehicle: saline 152 % of control | endpoint: mean survival time, dose: 3.2 mg/kg/injection, schedule: Q02DX010 (ip), vehicle: carboxymethylcellulose (CMC) 184 % of control | endpoint: mean survival time, dose: 6.0 mg/kg/injection, schedule: Q01DX001 (ip), vehicle: saline 196 % of control | endpoint: mean survival time, dose: 6.0 mg/kg/injection, schedule: Q01DX001 (ip), vehicle: water 174 % of control | endpoint: mean survival time, dose: 10.6 mg/kg/injection, schedule: Q04DX002 (ip), vehicle: saline 171 % of control | endpoint: mean survival time, dose: 11.0 mg/kg/injection, schedule: Q01DX001 (ip), vehicle: acetone 193 % of control | endpoint: mean survival time, dose: 1400.0 micrograms/kg/injection, schedule: Q01DX009 (ip), vehicle: saline 153 % of control
inactive: endpoint: mean survival time, dose: 0.1 mg/kg/injection, schedule: Q01DX Z (ip), vehicle: carboxymethylcellulose (CMC) 110 % of control | endpoint: mean survival time, dose: 0.18 mg/kg/injection, schedule: Q04DX002 (ip), vehicle: saline 106 % of control and 110 % of control | endpoint: mean survival time, dose: 0.2 mg/kg/injection, schedule: Q01DX Z (ip), vehicle: carboxymethylcellulose (CMC) 110 % of control | endpoint: mean survival time, dose: 0.2 mg/kg/injection, schedule: Q02DX010 (ip), vehicle: carboxymethylcellulose (CMC) 118 % of control | endpoint: mean survival time, dose: 0.25 mg/kg/injection, schedule: Q01DX Z (ip), vehicle: carboxymethylcellulose (CMC) 107 % of control | endpoint: mean survival time, dose: 0.32 mg/kg/injection, schedule: Q01DX Z (ip), vehicle: carboxymethylcellulose (CMC) 98 % of control | endpoint: mean survival time, dose: 0.35 mg/kg/injection, schedule: Q01DX009 (ip), vehicle: saline 120 % of control | endpoint: mean survival time, dose: 0.35 mg/kg/injection, schedule: Q04DX002 (ip), vehicle: saline 103 % of control | endpoint: mean survival time, dose: 0.4 mg/kg/injection, schedule: Q01DX Z (ip), vehicle: carboxymethylcellulose (CMC) 114 % of control and 116 % of control | endpoint: mean survival time, dose: 0.4 mg/kg/injection, schedule: Q02DX010 (ip), vehicle: carboxymethylcellulose (CMC) 111 % of control and 90 % of control | endpoint: mean survival time, dose: 0.5 mg/kg/injection, schedule: Q01DX Z (ip), vehicle: carboxymethylcellulose (CMC) 107 % of control and 122 % of control | endpoint: mean survival time, dose: 0.53 mg/kg/injection, schedule: Q01DX Z (ip), vehicle: carboxymethylcellulose (CMC) 114 % of control | endpoint: mean survival time, dose: 0.7 mg/kg/injection, schedule: Q01DX001 (ip), vehicle: saline 109 % of control | endpoint: mean survival time, dose: 0.7 mg/kg/injection, schedule: Q04DX002 (ip), vehicle: saline 103 % of control and 111 % of control | endpoint: mean survival time, dose: 0.75 mg/kg/injection, schedule: Q01DX001 (ip), vehicle: water 118 % of control | endpoint: mean survival time, dose: 0.8 mg/kg/injection, schedule: Q02DX010 (ip), vehicle: carboxymethylcellulose (CMC) 104 % of control and 121 % of control | endpoint: mean survival time, dose: 0.86 mg/kg/injection, schedule: Q02DX010 (ip), vehicle: carboxymethylcellulose (CMC) 117 % of control | endpoint: mean survival time, dose: 0.96 mg/kg/injection, schedule: Q01DX001 (ip), vehicle: acetone 114 % of control | endpoint: mean survival time, dose: 1.0 mg/kg/injection, schedule: Q01DX001 (ip), vehicle: saline 111 % of control | endpoint: mean survival time, dose: 1.4 mg/kg/injection, schedule: Q01DX001 (ip), vehicle: acetone 111 % of control | endpoint: mean survival time, dose: 1.5 mg/kg/injection, schedule: Q01DX001 (ip), vehicle: saline 115 % of control | endpoint: mean survival time, dose: 1.5 mg/kg/injection, schedule: Q01DX001 (ip), vehicle: water 117 % of control | endpoint: mean survival time, dose: 1.5 mg/kg/injection, schedule: Q07DX003 (ip), vehicle: saline 123 % of control | endpoint: mean survival time, dose: 1.5 mg/kg/injection, schedule: Q## X003 (ip), vehicle: saline 118 % of control | endpoint: mean survival time, dose: 1.6 mg/kg/injection, schedule: Q01DX001 (ip), vehicle: saline 117 % of control | endpoint: mean survival time, dose: 1.9 mg/kg/injection, schedule: Q01DX009 (ip), vehicle: saline 97 % of control | endpoint: mean survival time, dose: 2.0 mg/kg/injection, schedule: Q01DX Z (ip), vehicle: carboxymethylcellulose (CMC) 106 % of control | endpoint: mean survival time, dose: 2.2 mg/kg/injection, schedule: Q01DX001 (ip), vehicle: saline 108 % of control | endpoint: mean survival time, dose: 2.8 mg/kg/injection, schedule: Q01DX009 (ip), vehicle: saline 93 % of control | endpoint: mean survival time, dose: 3.0 mg/kg/injection, schedule: Q01DX001 (ip), vehicle: saline 123 % of control | endpoint: mean survival time, dose: 3.0 mg/kg/injection, schedule: Q02DX010 (ip), vehicle: other 115 % of control and 118 % of control | endpoint: mean survival time, dose: 3.3 mg/kg/injection, schedule: Q01DX001 (ip), vehicle: saline 116 % of control | endpoint: mean survival time, dose: 4.5 mg/kg/injection, schedule: Q02DX010 (ip), vehicle: other 86 % of control and 88 % of control | endpoint: mean survival time, dose: 5.0 mg/kg/injection, schedule: Q01DX001 (ip), vehicle: saline 118 % of control | endpoint: mean survival time, dose: 5.0 mg/kg/injection, schedule: Q01DX015 (ip), vehicle: saline 89 % of control | endpoint: mean survival time, dose: 6.7 mg/kg/injection, schedule: Q02DX010 (ip), vehicle: carboxymethylcellulose (CMC) 84 % of control | endpoint: mean survival time, dose: 7.5 mg/kg/injection, schedule: Q01DX001 (ip), vehicle: saline 123 % of control | endpoint: mean survival time, dose: 12.0 mg/kg/injection, schedule: Q## X003 (ip), vehicle: saline 100 % of control | endpoint: mean survival time, dose: 45.0 micrograms/kg/injection, schedule: Q01DX009 (ip), vehicle: saline 99 % of control and 117 % of control | endpoint: mean survival time, dose: 90.0 micrograms/kg/injection, schedule: Q01DX009 (ip), vehicle: saline 106 % of control and 120 % of control | endpoint: mean survival time, dose: 180.0 micrograms/kg/injection, schedule: Q01DX009 (ip), vehicle: saline 104 % of control and 120 % of control | endpoint: mean survival time, dose: 350.0 micrograms/kg/injection, schedule: Q01DX009 (ip), vehicle: saline 121 % of control | endpoint: median survival time, dose: 1.5 mg/kg/injection, schedule: Q01DX001 (ip), vehicle: saline 100 % of control | endpoint: median survival time, dose: 3.0 mg/kg/injection, schedule: Q01DX001 (ip), vehicle: saline 109 % of control | endpoint: median survival time, dose: 6.0 mg/kg/injection, schedule: Q01DX001 (ip), vehicle: saline 109 % of control | endpoint: median survival time, dose: 12.0 mg/kg/injection, schedule: Q01DX001 (ip), vehicle: saline 117 % of control

CP1CCC(O)(C(C)(C)C)CC1 (configuration not stated)
inactive: endpoint: mean survival time, dose: 75.0 mg/kg/injection, schedule: Q01DX001 (ip), vehicle: other 101 % of control | endpoint: mean survival time, dose: 150.0 mg/kg/injection, schedule: Q01DX001 (ip), vehicle: other 91 % of control

CCCCCCCCCCCCCCCCCN
inactive: endpoint: mean survival time, dose: 12.5 mg/kg/injection, schedule: Q01DX009 (ip), vehicle: Klucel (hydroxypropylcellulose) (HPC) 100 % of control | endpoint: mean survival time, dose: 12.5 mg/kg/injection, schedule: Q04DX003 (ip), vehicle: Klucel (hydroxypropylcellulose) (HPC) 93 % of control | endpoint: mean survival time, dose: 25.0 mg/kg/injection, schedule: Q01DX009 (ip), vehicle: Klucel (hydroxypropylcellulose) (HPC) 101 % of control | endpoint: mean survival time, dose: 25.0 mg/kg/injection, schedule: Q04DX003 (ip), vehicle: Klucel (hydroxypropylcellulose) (HPC) 100 % of control | endpoint: mean survival time, dose: 50.0 mg/kg/injection, schedule: Q04DX003 (ip), vehicle: Klucel (hydroxypropylcellulose) (HPC) 102 % of control

CC(C)C12CCC(C)(O1)C(O)C2O (configuration not stated)
inactive: endpoint: mean survival time, dose: 100.0 mg/kg/injection, schedule: Q01DX001 (ip), vehicle: saline 111 % of control | endpoint: mean survival time, dose: 200.0 mg/kg/injection, schedule: Q01DX001 (ip), vehicle: saline 104 % of control | endpoint: mean survival time, dose: 400.0 mg/kg/injection, schedule: Q01DX001 (ip), vehicle: saline 106 % of control

Cc1ccc(NC(=O)c2cccc(C(=O)Nc3ccc(C)cc3C)c2)c(C)c1
inactive: endpoint: mean survival time, dose: 12.5 mg/kg/injection, schedule: Q04DX003 (ip), vehicle: saline with Tween-80 98 % of control | endpoint: mean survival time, dose: 25.0 mg/kg/injection, schedule: Q04DX003 (ip), vehicle: saline with Tween-80 98 % of control | endpoint: mean survival time, dose: 50.0 mg/kg/injection, schedule: Q04DX003 (ip), vehicle: saline with Tween-80 93 % of control | endpoint: mean survival time, dose: 200.0 mg/kg/injection, schedule: Q04DX003 (ip), vehicle: saline with Tween-80 87 % of control
